Laboratory results: PMC7398468 (Gut, 2020)

Molecular target: SUMO-activating enzyme (SAE), subunit 2 (UBA2/SAE2) (Homo sapiens, UniProt Q9UBT2)
Assay: ATP-inorganic pyrophosphate exchange assay with SUMO2
Assay type: biochemical

Sequence of SUMO-activating enzyme (SAE), subunit 2 (UBA2/SAE2) (Q9UBT2 whole entry): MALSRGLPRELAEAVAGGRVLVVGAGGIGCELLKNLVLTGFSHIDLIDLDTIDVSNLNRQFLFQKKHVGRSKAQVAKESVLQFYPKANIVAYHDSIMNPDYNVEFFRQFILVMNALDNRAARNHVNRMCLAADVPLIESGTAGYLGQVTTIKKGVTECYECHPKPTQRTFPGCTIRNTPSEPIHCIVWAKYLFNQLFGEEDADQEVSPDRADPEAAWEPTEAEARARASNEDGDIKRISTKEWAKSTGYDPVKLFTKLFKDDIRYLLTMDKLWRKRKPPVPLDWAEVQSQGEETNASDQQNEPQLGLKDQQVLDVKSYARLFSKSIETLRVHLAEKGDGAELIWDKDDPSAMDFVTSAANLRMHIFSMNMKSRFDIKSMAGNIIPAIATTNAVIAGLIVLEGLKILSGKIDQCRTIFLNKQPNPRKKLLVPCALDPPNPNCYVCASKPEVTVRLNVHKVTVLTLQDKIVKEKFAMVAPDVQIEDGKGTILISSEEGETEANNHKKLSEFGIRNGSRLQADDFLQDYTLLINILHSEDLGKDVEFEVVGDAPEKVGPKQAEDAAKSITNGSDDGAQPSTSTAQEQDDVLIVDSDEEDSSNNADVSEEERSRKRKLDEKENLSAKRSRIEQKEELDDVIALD
Sequence of SUMO-activating enzyme (SAE), subunit 2 (UBA2/SAE2) (Q9UBE0 whole entry, further chain): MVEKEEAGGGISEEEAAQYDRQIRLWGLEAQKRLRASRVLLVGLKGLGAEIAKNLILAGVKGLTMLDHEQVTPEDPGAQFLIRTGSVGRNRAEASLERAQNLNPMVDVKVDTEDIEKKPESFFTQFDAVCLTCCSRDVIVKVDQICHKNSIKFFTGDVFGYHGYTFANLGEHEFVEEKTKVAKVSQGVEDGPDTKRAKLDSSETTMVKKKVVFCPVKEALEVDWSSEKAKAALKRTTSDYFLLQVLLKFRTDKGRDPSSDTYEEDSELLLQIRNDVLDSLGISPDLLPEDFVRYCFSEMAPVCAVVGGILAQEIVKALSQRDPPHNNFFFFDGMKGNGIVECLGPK

Substance ML-93 has an IC50 of 37 nM.
